From publication PMC9917735, “Optimization of the Hemolysis Assay for the Assessment of Cytotoxicity” (International Journal of Molecular Sciences, 2023)
Like-named read-outs stand apart in the source and are kept apart here.

Assays:
[1] = previously well-characterized AMPs; ref [9],[33]; cited from earlier work
Protocol: OD measurements of human whole blood treated with hemolyzing agents or AMPs at 405 nm (A), 530 nm (B), and 570 nm (C) were recorded (Figure 6) and HRs calculated (Table 5). For comparison, we also included the two previously well-characterized AMPs melittin and polymyxin B, which exert high and low cytotoxicity, respectively. […] From 530 and 570 nm measurements, the expected conce ...

human whole blood = settings: human whole blood, 60 min 37 °C; for Calculated hemolysis ratio: peptides 100 μM, neg. PBS, 3 x 2 replicates
Protocol: (§1) Blood is drawn from a human or an animal, and next, the washed erythrocytes are incubated together with the compound or material under investigation. If the compound causes hemolysis, hemoglobin (along with other cellular constituents) will be released into the supernatant.
(§2) All blood was collected in Lithium Heparin tubes 4 mL (Greiner Bio-One, Kremsmünster, Austria) or Coagulation sodium citrate 3.2% tubes 3 mL (Greiner Bio-One).
(§3) These three peptides were synthesized by Genscript Inc. (Piscataway, NJ, USA), and stock solutions of 1 mg/mL were made from the purchased powders. […] All peptides were diluted to yield a 100 μM final concentration in the hemolysis assays.
(§4) Triton X-100 (T8787) and Tween-20 (P2287) detergents were purchased from Sigma Aldrich and diluted to obtain 10% stock solutions by weighing (w/v). A sodium Dodecyl Sulfate (SDS) 10% solution was purchased from Invitrogen (Waltham, MA, USA, 15553027). All subsequent dilutions annotated in figures were made from these stocks.
(§5) As soon as possible after phlebotomy, the blood samples were centrifuged at 1700× g for 5 min. The supernatant was removed by aspiration and 2 mL of PBS pH 7 was added. The washing step was repeated three times or until the supernatant was clear. After final aspiration, the remaining pellet was diluted 1:100 in PBS pH 7 to obtain a 1% erythrocyte suspension (or 1:100, 1:50, and 1:20 for assays testing the effect of erythrocyte concentration). For experiments using whole blood, the washing steps were not performed, but downstream experimentation was identical. For experiments performed with 96-well plates, 50 μL of test compound, water, or detergent were mixed with 50 μL of blood sample (1% erythrocyte suspension or whole blood). For experiments using larger volumes, 250 μL of test compound, water, or detergent were mixed with 250 μL blood sample in an Eppendorf tube. Samples were subsequently incubated at 37 °C for 60 min (or 15, 30, 60, 90, or 120 min for assays evaluating the effect of incubation time). After incubation, the plates/tubes were centrifuged at 1700× g for 5 min, and then 50 μL of the supernatants were transferred to transparent, flat-bottom 96-well plates (Anicrin, A013418). Finally, absorption was measured at 405, 530, and 570 nm in a Victor Nivo Multimode microplate reader (Perkin Elmer, Waltham, MA, USA).

[2] = test system: washed human erythrocytes; experiment: Hemolysis assay, washed human erythrocytes; settings: peptides 100 μM, 60 min 37 °C, pos. 10% Triton X-100, neg. PBS, 3 x 2 replicates
Protocol: as §1, §2, §3, §4, §5

Structure (SMILES): CC[C@H](C)[C@H](NC(=O)CN)C(=O)NCC(=O)N[C@@H](C)C(=O)N[C@H](C(=O)N[C@@H](CC(C)C)C(=O)N[C@@H](CCCCN)C(=O)N[C@H](C(=O)N[C@@H](CC(C)C)C(=O)N[C@H](C(=O)N[C@H](C(=O)NCC(=O)N[C@@H](CC(C)C)C(=O)N1CCC[C@H]1C(=O)N[C@@H](C)C(=O)N[C@@H](CC(C)C)C(=O)N[C@H](C(=O)N[C@@H](CO)C(=O)N[C@@H](Cc1c[nH]c2ccccc12)C(=O)N[C@H](C(=O)N[C@@H](CCCCN)C(=O)N[C@@H](CCCNC(=N)N)C(=O)N[C@@H](CCCCN)C(=O)N[C@@H](CCCNC(=N)N)C(=O)N[C@@H](CCC(N)=O)C(=O)N[C@@H](CCC(N)=O)C(N)=O)[C@@H](C)CC)[C@@H](C)CC)[C@@H](C)O)[C@@H](C)O)C(C)C)C(C)C [Melittin, reference compound]
- Cytotoxicity (qualitative) [1]: high
- Blood clotting in whole blood (human whole blood; melittin 100 μM): clotting effect was also observed
- Calculated hemolysis ratio (human whole blood; OD 405 nm (signal saturated), pos. 10% SDS): 98.3 ± 1.4%
- Calculated hemolysis ratio (human whole blood; OD 530 nm, pos. 10% SDS): 36.6 ± 8.7%
- Calculated hemolysis ratio (human whole blood; OD 570 nm, pos. 10% Triton X-100 (table title; text says 10% SDS)): 54 ± 15.5%
- Calculated hemolysis ratio ([2]; 1% washed human erythrocytes, OD 530 nm): 78.4 ± 4.3%
- Calculated hemolysis ratio ([2]; 1% washed human erythrocytes, OD 570 nm): 79.8 ± 8.2%
- Calculated hemolysis ratio ([2]; Table 6: 1% washed human erythrocytes, OD 405 nm): 84.4 ± 8.1%
